The source of these data is paper PMC5640650, “NatD promotes lung cancer progression by preventing histone H4 serine phosphorylation to activate Slug expression” (Nature Communications, 2017).

In data set [1] the test system is A549 cells. Description: Orthotopic implantation in nude mice, A549 cells. Conditions: pleural cavity, 21 days, n = 6, vs Scr. The class given is in vivo, human. Here is the method: All animal care and handling procedures were performed in accordance with the National Institutes of Health Guide for the Care and Use of Laboratory Animals, and were approved by the Institutional Review Board of Nanjing University (Nanjing, China). Female SCID mice and C57BL/6 mice (6–8 week old) were purchased from the Model Animal Research Center of Nanjing University (Nanjing, China), and were maintained under specific pathogen-free conditions at Nanjing University. The sample size was chosen with adequate power on the basis of the literature and our previous experience[46] and for each experiment it is indicated in the figure legend. […] Lung nodules and progression were monitored and quantified using the bioluminescence system (Caliper IVIS Lumina XR) or by counting under a dissecting microscope. […] Mice were killed at day 28 or day 30 to collect lungs, and lung nodules in serial sections were quantified microscopically. […] Lung nodules and progression were monitored and quantified using the bioluminescence system (Caliper IVIS Lumina XR). Mice were killed at day 14 or day 21 to collect lungs, and lung nodules in serial sections were quantified microscopically. […]
Supplementary Figure 9. […] (right) Relative BLI signals of lung tumors of corresponding mice (n = 6 for each group) recorded on day 3 and day 21. […]

The test system of data set [2] is A549 cells. Kind of data set: Expression of EMT genes, A549 cells. The class given is cell-based, human. Conditions: vs Scr. As to the method:
Cellular proteins were extracted by RIPA lysis buffer at high salt concentration (420 mM NaCl), and western blot analysis was performed in accordance with standard protocols. Scans of enhanced chemiluminescence (ECL) films showing uncropped blots are presented in Supplementary Fig. 10. […]
Total RNA from tissue samples and cultured cells was extracted using TRIzol reagent (Invitrogen). cDNAs were synthesized with a HiScript 1st Strand cDNA Synthesis Kit (Vazyme Biotech, China). Quantitative RT-PCR was performed using a FastStart Universal SYBR Green Master (Roche) according to the manufacturer’s instructions in a Rotor-Gene 6000 (Corbett Research) in a final volume of 20 μl. […]
Supplementary Figure 4. […] (a) Quantitative real-time PCR analysis of mRNA levels of NatD, CCND1, p21, p27, p57, p16, p18, p19, CHEK2, E2F1, CCND2, KRAS, PTEN, c-Myc, and PCNA in scrambled (Scr) and NatD knockdown (NatD-KD) H1299 cells normalized to GAPDH. […] (b) Quantitative real-time PCR analysis of mRNA levels of NatD and key EMT-related genes in Scr and NatD-KD A549 cells normalized to […]
GAPDH served as a loading control. […] (bottom) Cell migration and invasion expressed as a percentage of control. […]

For the substance “NatD-KD2: Human NatD shRNA KD2: 5′-GGTTGAATGTCTCCATTGA-3′, lentiviral (shRNA lentiviral)”, the “migration and invasion, orthotopic model” value in data set [1] is “significantly reduced”. For the same substance, in data set [2], the “expression of E-cadherin” value was “increased the expression”; the “expression of Slug, N-cadherin, and Vimentin” value is recorded as “decreased the expression”.
